Test results from patent publication US20240384268A1, “Oligonucleotides” (Hudson Institute of Medical Research, priority 2021, published 2024).
In the oligonucleotide strings, read from the 5' end, every base follows the letter of its sugar. An asterisk marks phosphorothioate; unmarked linkages are phosphodiester. Other units and linkages are bracketed, terminal groups are in braces. A string of capitals states the bases alone. d = 2'-deoxy (DNA); m = 2'-O-methyl

Target: T1, TLR8 (Homo sapiens, UniProt Q9NR97)
T1 sequence (Q9NR97 27-1041): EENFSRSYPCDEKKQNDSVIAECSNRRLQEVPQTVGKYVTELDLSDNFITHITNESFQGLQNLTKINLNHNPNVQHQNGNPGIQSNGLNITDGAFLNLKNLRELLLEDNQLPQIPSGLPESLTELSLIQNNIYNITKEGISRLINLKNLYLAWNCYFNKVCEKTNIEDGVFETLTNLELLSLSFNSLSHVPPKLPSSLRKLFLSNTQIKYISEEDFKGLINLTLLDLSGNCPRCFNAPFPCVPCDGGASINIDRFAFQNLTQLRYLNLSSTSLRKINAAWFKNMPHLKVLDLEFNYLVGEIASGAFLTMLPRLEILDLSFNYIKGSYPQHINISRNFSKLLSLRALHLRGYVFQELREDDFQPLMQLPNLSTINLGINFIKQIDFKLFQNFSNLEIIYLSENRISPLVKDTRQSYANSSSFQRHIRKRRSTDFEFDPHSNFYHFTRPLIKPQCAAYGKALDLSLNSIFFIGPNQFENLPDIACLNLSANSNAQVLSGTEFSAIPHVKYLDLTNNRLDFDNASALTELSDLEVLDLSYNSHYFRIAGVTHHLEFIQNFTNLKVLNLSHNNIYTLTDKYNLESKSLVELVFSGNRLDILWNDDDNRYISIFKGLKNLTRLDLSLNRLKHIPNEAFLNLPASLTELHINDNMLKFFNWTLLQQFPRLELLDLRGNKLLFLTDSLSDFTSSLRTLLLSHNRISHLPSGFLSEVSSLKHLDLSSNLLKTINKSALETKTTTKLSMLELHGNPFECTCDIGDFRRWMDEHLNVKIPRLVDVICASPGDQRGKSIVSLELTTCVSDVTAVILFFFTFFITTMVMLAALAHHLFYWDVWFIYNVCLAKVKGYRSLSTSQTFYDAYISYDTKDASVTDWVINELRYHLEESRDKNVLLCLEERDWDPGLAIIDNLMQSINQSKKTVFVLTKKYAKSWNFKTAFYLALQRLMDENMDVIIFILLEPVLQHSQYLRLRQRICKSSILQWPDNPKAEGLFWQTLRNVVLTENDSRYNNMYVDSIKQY
Test: HEK-TLR8 NF-κB-luciferase reporter, R848 or Motolimod stimulation (potentiation or inhibition)
Format: cell-based
Design: expressed in transfected cells; host or cells: 293XLhTLR8 (HEK293)
Details: for TLR8 100 nM (averaged NF-κB-Luciferase level relative to R848 condition, fold increase): ASO 100 nM; for TLR8 100 nM (averaged NF-κB-Luciferase level relative to R848 condition, fold increase) / TLR8 500 nM (averaged NF-κB-Luciferase level relative to R848 condition, fold increase): relative to R848 only; for TLR8 500 nM (averaged NF-κB-Luciferase level relative to R848 condition, fold increase): ASO 500 nM; for TLR8-500 nM: averaged NF-κB-Luciferase relative to R848: HEK-TLR8, 500 nM ASO, fold increase relative to R848 without ASO (Alharbi et al., 2020)

## AAAGGACTGAGGAAAG (antisense; LNA-modified, pattern not given here) [CAMSAP1-6273 LNA KL]
  TLR8 100 nM (averaged NF-κB-Luciferase level relative to R848 condition, fold increase): 0.882
  TLR8 500 nM (averaged NF-κB-Luciferase level relative to R848 condition, fold increase): 2.663

## GGTCATTACAATAGCT (antisense; LNA-modified, pattern not given here) [HPRT LNA-475 KL]
  TLR8 100 nM (averaged NF-κB-Luciferase level relative to R848 condition, fold increase): 0.500
  TLR8 500 nM (averaged NF-κB-Luciferase level relative to R848 condition, fold increase): 1.381

## ACTTCGTGGGGTCCTT (antisense; LNA-modified, pattern not given here) [HPRT LNA-663 V1]
  TLR8 100 nM (averaged NF-κB-Luciferase level relative to R848 condition, fold increase): 0.820
  TLR8 500 nM (averaged NF-κB-Luciferase level relative to R848 condition, fold increase): 3.672

## GACTATACGCGCAATA (antisense; LNA-modified, pattern not given here) [NC5 LNA PS 3-10-3]
  TLR8 100 nM (averaged NF-κB-Luciferase level relative to R848 condition, fold increase): 0.777
  TLR8 500 nM (averaged NF-κB-Luciferase level relative to R848 condition, fold increase): 3.376

## GGTCTTGGCTTCGTGG (antisense; LNA-modified, pattern not given here) [MB21D1-523 LNA V1]
  TLR8 100 nM (averaged NF-κB-Luciferase level relative to R848 condition, fold increase): 0.616
  TLR8 500 nM (averaged NF-κB-Luciferase level relative to R848 condition, fold increase): 1.386

## GTGATCTTGACATGCT (antisense; LNA-modified, pattern not given here) [EGFR-2790 LNA KL]
  TLR8 100 nM (averaged NF-κB-Luciferase level relative to R848 condition, fold increase): 0.583
  TLR8 500 nM (averaged NF-κB-Luciferase level relative to R848 condition, fold increase): 1.806

## AACACTTCGTGGGGTC (antisense; LNA-modified, pattern not given here) [HPRT LNA-666 V1]
  TLR8 100 nM (averaged NF-κB-Luciferase level relative to R848 condition, fold increase): 0.496
  TLR8 500 nM (averaged NF-κB-Luciferase level relative to R848 condition, fold increase): 0.882

## mC*mU*mU*mG*mU*G*A*A*A*A*G*A*T*T*A*mU*mC*mU*mU*mC (mC*mU*mU*mG*mU*dG*dA*dA*dA*dA*dG*dA*dT*dT*dA*mU*mC*mU*mU*mC) [[CDKN2B-AS1]2139]
  TLR8-500 nM: averaged NF-κB-Luciferase relative to R848: 6.02 fold

## CGTATTATAGCCGATT (antisense; LNA-modified, pattern not given here) [NC1 LNA PS 3-10-3]
  TLR8 100 nM (averaged NF-κB-Luciferase level relative to R848 condition, fold increase): 0.396
  TLR8 500 nM (averaged NF-κB-Luciferase level relative to R848 condition, fold increase): 0.716

## GAAAGGTTATGCAAGG (antisense; LNA-modified, pattern not given here) [CTNN2B-916 LNA KL]
  TLR8 100 nM (averaged NF-κB-Luciferase level relative to R848 condition, fold increase): 1.156
  TLR8 500 nM (averaged NF-κB-Luciferase level relative to R848 condition, fold increase): 4.110

## ATGTGATGGCCTCCCA (antisense; LNA-modified, pattern not given here) [HPRT LNA-335 V1]
  TLR8 100 nM (averaged NF-κB-Luciferase level relative to R848 condition, fold increase): 0.637
  TLR8 500 nM (averaged NF-κB-Luciferase level relative to R848 condition, fold increase): 1.840

## AACCCCTTTCACCATC (antisense; LNA-modified, pattern not given here) [MB21D1-689 LNA KL]
  TLR8 100 nM (averaged NF-κB-Luciferase level relative to R848 condition, fold increase): 1.871
  TLR8 500 nM (averaged NF-κB-Luciferase level relative to R848 condition, fold increase): 8.654

## GAGGTCTTGGCTTCGT (antisense; LNA-modified, pattern not given here) [MB21D1-525 LNA V1]
  TLR8 100 nM (averaged NF-κB-Luciferase level relative to R848 condition, fold increase): 0.574
  TLR8 500 nM (averaged NF-κB-Luciferase level relative to R848 condition, fold increase): 0.642

## CCACTTGGCAGACCAT (antisense; LNA-modified, pattern not given here) [CTNN2B-1575 LNA V1]
  TLR8 100 nM (averaged NF-κB-Luciferase level relative to R848 condition, fold increase): 0.684
  TLR8 500 nM (averaged NF-κB-Luciferase level relative to R848 condition, fold increase): 1.213

## mG*mU*mC*mU*mC*C*A*T*G*T*C*C*C*A*G*mG*mC*mC*mU*mC (mG*mU*mC*mU*mC*dC*dA*dT*dG*dT*dC*dC*dC*dA*dG*mG*mC*mC*mU*mC) [[CDKN2B;AS1]2231]
  TLR8-500 nM: averaged NF-κB-Luciferase relative to R848: 1.25 fold

## GGCTCGGCTTGCCTAC (antisense; LNA-modified, pattern not given here) [CAMSAP1-5594 LNA V1]
  TLR8 100 nM (averaged NF-κB-Luciferase level relative to R848 condition, fold increase): 0.374
  TLR8 500 nM (averaged NF-κB-Luciferase level relative to R848 condition, fold increase): 0.706

## TGGTGGCCACCCATCT (antisense; LNA-modified, pattern not given here) [CTNN2B-2479 LNA V1]
  TLR8 100 nM (averaged NF-κB-Luciferase level relative to R848 condition, fold increase): 0.464
  TLR8 500 nM (averaged NF-κB-Luciferase level relative to R848 condition, fold increase): 0.604

## mC*mA*mG*mU*mG*T*T*T*T*T*A*A*T*T*T*mU*mG*mU*mA*mG (mC*mA*mG*mU*mG*dT*dT*dT*dT*dT*dA*dA*dT*dT*dT*mU*mG*mU*mA*mG; antisense) [[CDKN2B-AS1]613]
  TLR8-500 nM: averaged NF-κB-Luciferase relative to R848: 6.73 fold

## TACTTTCCGAGGTGTC (antisense; LNA-modified, pattern not given here) [CAMSAP1-1739 LNA KL]
  TLR8 100 nM (averaged NF-κB-Luciferase level relative to R848 condition, fold increase): 0.417
  TLR8 500 nM (averaged NF-κB-Luciferase level relative to R848 condition, fold increase): 1.585

## CCACATCCTGTGGCTC (antisense; LNA-modified, pattern not given here) [CAMSAP1-2906 LNA V1]
  TLR8 100 nM (averaged NF-κB-Luciferase level relative to R848 condition, fold increase): 0.291
  TLR8 500 nM (averaged NF-κB-Luciferase level relative to R848 condition, fold increase): 0.232

## TGCTCCTCGGTCTCCC (antisense; LNA-modified, pattern not given here) [CAMSAP1-1850 LNA V1]
  TLR8 100 nM (averaged NF-κB-Luciferase level relative to R848 condition, fold increase): 1.097
  TLR8 500 nM (averaged NF-κB-Luciferase level relative to R848 condition, fold increase): 4.771

## AGATTTCAGAGCAGCT (antisense; LNA-modified, pattern not given here) [EGFR-4885 LNA KL]
  TLR8 100 nM (averaged NF-κB-Luciferase level relative to R848 condition, fold increase): 0.401
  TLR8 500 nM (averaged NF-κB-Luciferase level relative to R848 condition, fold increase): 0.770

## ATGGCCTCCCATCTCC (antisense; LNA-modified, pattern not given here) [HPRT LNA-330 V1]
  TLR8 100 nM (averaged NF-κB-Luciferase level relative to R848 condition, fold increase): 0.369
  TLR8 500 nM (averaged NF-κB-Luciferase level relative to R848 condition, fold increase): 1.356

## GTCTCTGGAGCTTCCT (antisense; LNA-modified, pattern not given here) [CAMSAP1-2456 LNA V1]
  TLR8 100 nM (averaged NF-κB-Luciferase level relative to R848 condition, fold increase): 0.764
  TLR8 500 nM (averaged NF-κB-Luciferase level relative to R848 condition, fold increase): 2.402

## mG*mU*mG*mU*mU*T*T*T*A*A*T*T*T*T*G*mU*mA*mG*mA*mG (mG*mU*mG*mU*mU*dT*dT*dT*dA*dA*dT*dT*dT*dT*dG*mU*mA*mG*mA*mG) [[CDKN2B-AS1]611]
  TLR8-500 nM: averaged NF-κB-Luciferase relative to R848: 1.88 fold

## mG*mU*mG*mU*mC*C*T*T*C*A*T*G*C*T*T*mU*mG*mG*mA*mU (GUGUCCTTCATGCTTUGGAU; antisense; sugars from the 5' end m5 d10 m5, all phosphorothioate, methylation of C not given here) [[CDKN2B-AS1]1415]
  TLR8-500 nM: averaged NF-κB-Luciferase relative to R848: 1.60 fold

## CTTGAAGCATCGTATC (antisense; LNA-modified, pattern not given here) [CTNN2B-3648 LNA KL]
  TLR8 100 nM (averaged NF-κB-Luciferase level relative to R848 condition, fold increase): 0.960
  TLR8 500 nM (averaged NF-κB-Luciferase level relative to R848 condition, fold increase): 3.889

## GTCCTTGCACGTGGCT (antisense; LNA-modified, pattern not given here) [EGFR-1015 LNA V1]
  TLR8 100 nM (averaged NF-κB-Luciferase level relative to R848 condition, fold increase): 0.570
  TLR8 500 nM (averaged NF-κB-Luciferase level relative to R848 condition, fold increase): 0.936

## mA*mG*mC*mA*mG*T*C*T*C*C*A*T*G*T*C*mC*mC*mA*mG*mG (AGCAGTCTCCATGTCCCAGG; antisense; sugars from the 5' end m5 d10 m5, all phosphorothioate, methylation of C not given here) [[CDKN2B-AS1]2235]
  TLR8-500 nM: averaged NF-κB-Luciferase relative to R848: 4.93 fold

## CATCCACCACGTCGTC (antisense; LNA-modified, pattern not given here) [EGFR-3266 LNA V1]
  TLR8 100 nM (averaged NF-κB-Luciferase level relative to R848 condition, fold increase): 0.778
  TLR8 500 nM (averaged NF-κB-Luciferase level relative to R848 condition, fold increase): 2.417

## GCACTTCAGTCTGAGC (antisense; LNA-modified, pattern not given here) [MB21D1-719 LNA KL]
  TLR8 100 nM (averaged NF-κB-Luciferase level relative to R848 condition, fold increase): 0.495
  TLR8 500 nM (averaged NF-κB-Luciferase level relative to R848 condition, fold increase): 0.864

## TTCAGGCGCTGCCTTG (antisense; LNA-modified, pattern not given here) [CAMSAP1-2709 LNA V1]
  TLR8 100 nM (averaged NF-κB-Luciferase level relative to R848 condition, fold increase): 0.479
  TLR8 500 nM (averaged NF-κB-Luciferase level relative to R848 condition, fold increase): 0.764
